This is an account of results in patent publication US10894784B2, “Heteroarylbenzimidazole compounds” (BAYER PHARMA AKTIENGESELLSCHAFT, priority 2015, dated 2021).

Structures are written as SMILES. “And” between values parts separate entries of the source, which are not always exact repeats. Identical values can stand only once.

The experiment deals with TBK1 (Homo sapiens (Human), UniProt Q9UHD2). The experiment can be described thus: TBK1 low ATP kinase assay (in vitro assay 1). In kind it is biochemical. The following applies: in vitro assay 1, read-out: TBK1 low ATP kinase assay IC50.
TBK1, sequence (Q9UHD2 whole entry): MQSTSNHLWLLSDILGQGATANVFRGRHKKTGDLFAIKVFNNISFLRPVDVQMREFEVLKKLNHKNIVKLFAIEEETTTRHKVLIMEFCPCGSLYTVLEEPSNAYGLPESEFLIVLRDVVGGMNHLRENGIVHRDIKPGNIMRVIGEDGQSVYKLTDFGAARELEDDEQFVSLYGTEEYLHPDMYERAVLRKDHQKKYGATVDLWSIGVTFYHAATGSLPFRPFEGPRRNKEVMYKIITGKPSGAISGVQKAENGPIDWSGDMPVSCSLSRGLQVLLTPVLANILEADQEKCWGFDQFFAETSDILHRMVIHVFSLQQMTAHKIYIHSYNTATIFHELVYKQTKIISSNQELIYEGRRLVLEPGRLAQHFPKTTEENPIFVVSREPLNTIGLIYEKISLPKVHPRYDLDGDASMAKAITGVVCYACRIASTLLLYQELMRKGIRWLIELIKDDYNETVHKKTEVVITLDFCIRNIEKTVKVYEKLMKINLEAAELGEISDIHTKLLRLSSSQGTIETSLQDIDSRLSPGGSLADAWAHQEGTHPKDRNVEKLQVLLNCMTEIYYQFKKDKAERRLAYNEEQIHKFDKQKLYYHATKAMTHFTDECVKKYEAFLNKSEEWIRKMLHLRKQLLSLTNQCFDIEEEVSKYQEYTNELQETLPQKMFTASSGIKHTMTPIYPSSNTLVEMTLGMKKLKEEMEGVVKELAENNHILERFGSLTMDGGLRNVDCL
Broadly, the IC50 is the concentration needed to halve the response being measured. Take `Cc1cccc(-c2ccc3nc(Nc4cc(CN5CCN(C(=O)OC(C)(C)C)CC5)ccn4)[nH]c3c2)n1` [Example 12.01, tert-butyl 4-[(2-{[6-(6-methylpyridin-2-yl)-1H-benzimidazol-2-yl]amino}pyridin-4-yl)methyl]piperazine-1-carboxylate]: the IC50 is > 20000 nM and 10000 nM and 8120 nM. Then `O=C(C1CC1)N1CCN(Cc2ccnc(Nc3nc4ccc(-c5ncnc(NCC6CCC6)c5F)cc4[nH]3)c2)CC1` [Example 191.03], with 94.8 nM. In the case of `CN(c1cc(-c2ccc3nc(Nc4cc(CN5CCN(C(=O)CC(F)(F)F)CC5)ccn4)[nH]c3c2)ncn1)C1CCC1` [Example 156.02, 1-[4-({2-[(6-{6-[cyclobutyl(methyl)amino]pyrimidin-4-yl}-1H-benzimidazol-2-yl)amino]pyridin-4-yl}methyl)piperazin-1-yl]-3,3,3-trifluoropropan-1-one], the IC50 turned out to be 9.3 nM. On to `COc1c(-c2ccc3nc(Nc4cc(C(C)N5CCN(C(=O)C6CC6)CC5)ccn4)[nH]c3c2)ncnc1N1CCC1` (single isomer, unassigned) [Example 111.02, (4-{(1R or 1S)-1-[2-({6-[6-(azetidin-1-yl)-5-methoxypyrimidin-4-yl]-1H-benzimidazol-2-yl}amino)pyridin-4-yl]ethyl}piperazin-1-yl)(cyclopropyl)methanone], for which the IC50 amounted to 1 nM. Then `COc1cc(-c2ccc3nc(Nc4cc(CN5CCN(C(=O)CC6CC6)CC5)ccn4)[nH]c3c2)c(F)cn1` [Example 03.04, 2-cyclopropyl-1-{4-[(2-{[6-(5-fluoro-2-methoxypyridin-4-yl)-1H-benzimidazol-2-yl]amino}pyridin-4-yl)methyl]piperazin-1-yl}ethanone], with 288 nM; and `CC(c1ccnc(Nc2nc3ccc(-c4cnn(CC5CC5)c4)cc3[nH]2)c1)N1CCN(C(=O)OC(C)(C)C)CC1` (single isomer, unassigned) [Example 39.02.01, tert-butyl 4-{(1R or 1S)-1-[2-({6-[1-(cyclopropylmethyl)-1H-pyrazol-4-yl]-1H-benzimidazol-2-yl}amino)pyridin-4-yl]ethyl}piperazine-1-carboxylate], with 8.61 nM. As for `O=C(C1CC1)N1CCN(Cc2ccnc(Nc3nc4ccc(-c5c(F)cncc5Cl)cc4[nH]3)c2)CC1` [Example 132.03, {4-[(2-{[6-(3-chloro-5-fluoropyridin-4-yl)-1H-benzimidazol-2-yl]amino}pyridin-4-yl)methyl]piperazin-1-yl}(cyclopropyl)methanone], the IC50 was 260 nM.

As to `Cc1cc(-c2ccc3nc(Nc4cc(CN5CCN(C(=O)CC(F)(F)F)CC5)ccn4)[nH]c3c2)nc(N(C)C)n1` [Example 178.02, 1-(4-{[2-({6-[2-(dimethylamino)-6-methylpyrimidin-4-yl]-1H-benzimidazol-2-yl}amino)pyridin-4-yl]methyl}piperazin-1-yl)-3,3,3-trifluoropropan-1-one], the IC50 was found to be 402 nM.

Regarding `Cc1nccc(-c2ccc3nc(Nc4cc(CN5CCN(C(=O)C6CC6)CC5)ccn4)[nH]c3c2)n1` [Example 24.01.03, cyclopropyl{4-[(2-{[6-(2-methylpyrimidin-4-yl)-1H-benzimidazol-2-yl]amino}pyridin-4-yl)methyl]piperazin-1-yl}methanone], the IC50 turned out to be 43.2 nM. Then `COc1c(-c2ccc3nc(Nc4cc(C(C)N5CCN(C(=O)C6CC6)CC5)ccn4)[nH]c3c2)ncnc1N(C)C` (single isomer, unassigned) [Example 107.02.02, cyclopropyl(4-{(1R or 1S)-1-[2-({6-[6-(dimethylamino)-5-methoxypyrimidin-4-yl]-1H-benzimidazol-2-yl}amino)pyridin-4-yl]ethyl}piperazin-1-yl)methanone], with 5.9 nM; and `COc1c(-c2ccc3nc(Nc4cc(C(C)N5CCN(C(=O)OC(C)(C)C)CC5)ccn4)[nH]c3c2)ncnc1N1CCC1` (single isomer, unassigned) [Example 111.01, tert-butyl 4-{(1R or 1S)-1-[2-({6-[6-(azetidin-1-yl)-5-methoxypyrimidin-4-yl]-1H-benzimidazol-2-yl}amino)pyridin-4-yl]ethyl}piperazine-1-carboxylate], with 2.6 nM.

Turning to `COc1cc(-c2ccc3nc(Nc4cc(CN5CCN(C(=O)CC(F)(F)F)CC5)ccn4)[nH]c3c2)ccn1` [Example 02.03, 3,3,3-trifluoro-1-{4-[(2-{[6-(2-methoxypyridin-4-yl)-1H-benzimidazol-2-yl]amino}pyridin-4-yl)methyl]piperazin-1-yl}propan-1-one], the IC50 came to 36.8 nM. In the case of `O=C(C1CC1)N1CCN(Cc2ccnc(Nc3nc4ccc(-c5cc(NCC6CC6)ncn5)cc4[nH]3)c2)CC1` [Example 142.03, cyclopropyl[4-({2-[(6-{6-[(cyclopropylmethyl)amino]pyrimidin-4-yl}-1H-benzimidazol-2-yl)amino]pyridin-4-yl}methyl)piperazin-1-yl]methanone] it was 3 nM.

In the case of `Cc1noc(-c2ccc3nc(Nc4cc(CN5CCN(c6ccc(F)cc6F)CC5)ccn4)[nH]c3c2)n1` [Example 101.11, N-(4-{[4-(2,4-difluorophenyl)piperazin-1-yl]methyl}pyridin-2-yl)-6-(3-methyl-1,2,4-oxadiazol-5-yl)-1H-benzimidazol-2-amine], the IC50 was above 20000 nM.

Regarding `CC(c1ccnc(Nc2nc3ccc(-c4cnn(CC5CCC5)c4)cc3[nH]2)c1)N1CCN(C(=O)C2CC2)CC1` (single isomer, unassigned) [Example 59.01.03, (4-{(1R or 1S)-1-[2-({6-[1-(cyclobutylmethyl)-1H-pyrazol-4-yl]-1H-benzimidazol-2-yl}amino)pyridin-4-yl]ethyl}piperazin-1-yl)(cyclopropyl)methanone], the IC50 was found to be 2.59 nM. In the case of `COc1ccncc1-c1ccc2nc(Nc3cc(CN4CCN(C(=O)C5CCC5)CC4)ccn3)[nH]c2c1` [Example 14.01, cyclobutyl{4-[(2-{[6-(4-methoxypyridin-3-yl)-1H-benzimidazol-2-yl]amino}pyridin-4-yl)methyl]piperazin-1-yl}methanone] it was 195 nM. Then `CCN(C)c1cc(-c2ccc3nc(Nc4cc(CN5CCN(C(=O)CC(F)(F)F)CC5)ccn4)[nH]c3c2)ncn1` [Example 148.02, 1-[4({2-[(6-{6-[ethyl(methyl)amino]pyrimidin-4-yl}-1H-benzimidazol-2-yl)amino]pyridin-4-yl}methyl)piperazin-1-yl]-3,3,3-trifluoropropan-1-one], with 6.5 nM; and `CC(c1ccnc(Nc2nc3ccc(-c4cnn(CC(F)F)c4)cc3[nH]2)c1)N1CCN(C(=O)CC(F)(F)F)CC1` (single isomer, unassigned) [Example 87.01, 1-(4-{(1R or 1S)-1-[2-({6-[1-(2,2-difluoroethyl)-1H-pyrazol-4-yl]-1H-benzimidazol-2-yl}amino)pyridin-4-yl]ethyl}piperazin-1-yl)-3,3,3-trifluoropropan-1-one], with 2.3 nM; and `Cc1cc(-c2ccc3nc(Nc4cc(C(C)N5CCN(C(=O)OC(C)(C)C)CC5)ccn4)[nH]c3c2Cl)ncn1` (single isomer, unassigned) [Example 98.01, tert-butyl 4-[(1R or 1S)-1-(2-{[7-chloro-6-(6-methylpyrimidin-4-yl)-1H-benzimidazol-2-yl]amino}pyridin-4-yl)ethyl]piperazine-1-carboxylate], with 100 nM.
